Test results reported in article PMC3513969 (Evidence-based Complementary and Alternative Medicine : eCAM, 2012).

Experiments:
CYP1A2 = biological target: T1, CYP1A2 (Homo sapiens, UniProt P05177); test: Inhibition of CYP1A2 activity in human liver microsomes (acetaminophen/phenacetin ratio); assay type: biochemical; settings: extracts as lovastatin concentration, mean ± SEM, 3-4 preparations
T1 construct: Human liver microsomes (UltraPool HLM 150) were purchased from BD Biosciences; tissue BD Biosciences UltraPool HLM 150; host or cells: pooled human liver microsomes
T1 sequence (P05177 1-516): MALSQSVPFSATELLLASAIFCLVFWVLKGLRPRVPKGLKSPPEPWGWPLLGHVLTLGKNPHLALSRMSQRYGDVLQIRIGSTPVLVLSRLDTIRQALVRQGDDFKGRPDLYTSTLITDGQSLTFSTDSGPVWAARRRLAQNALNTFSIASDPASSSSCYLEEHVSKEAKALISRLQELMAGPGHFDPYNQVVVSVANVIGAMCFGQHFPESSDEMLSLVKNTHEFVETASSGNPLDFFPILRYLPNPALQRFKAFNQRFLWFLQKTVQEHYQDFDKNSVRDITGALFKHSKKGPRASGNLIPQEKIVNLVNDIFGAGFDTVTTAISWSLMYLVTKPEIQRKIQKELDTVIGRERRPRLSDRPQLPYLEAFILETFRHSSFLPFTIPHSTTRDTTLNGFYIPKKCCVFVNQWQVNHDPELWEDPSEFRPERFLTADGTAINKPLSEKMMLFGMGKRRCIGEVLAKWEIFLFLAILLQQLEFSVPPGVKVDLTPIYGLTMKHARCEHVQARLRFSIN

CYP2B6 = biological target: T2, CYP2B6 (Homo sapiens, UniProt P20813); test: Inhibition of CYP2B6 activity in human liver microsomes (hydroxybupropion/bupropion ratio); assay type: biochemical
T2 construct: Human liver microsomes (UltraPool HLM 150) were purchased from BD Biosciences; tissue BD Biosciences UltraPool HLM 150; host or cells: pooled human liver microsomes
T2 sequence (P20813 1-491): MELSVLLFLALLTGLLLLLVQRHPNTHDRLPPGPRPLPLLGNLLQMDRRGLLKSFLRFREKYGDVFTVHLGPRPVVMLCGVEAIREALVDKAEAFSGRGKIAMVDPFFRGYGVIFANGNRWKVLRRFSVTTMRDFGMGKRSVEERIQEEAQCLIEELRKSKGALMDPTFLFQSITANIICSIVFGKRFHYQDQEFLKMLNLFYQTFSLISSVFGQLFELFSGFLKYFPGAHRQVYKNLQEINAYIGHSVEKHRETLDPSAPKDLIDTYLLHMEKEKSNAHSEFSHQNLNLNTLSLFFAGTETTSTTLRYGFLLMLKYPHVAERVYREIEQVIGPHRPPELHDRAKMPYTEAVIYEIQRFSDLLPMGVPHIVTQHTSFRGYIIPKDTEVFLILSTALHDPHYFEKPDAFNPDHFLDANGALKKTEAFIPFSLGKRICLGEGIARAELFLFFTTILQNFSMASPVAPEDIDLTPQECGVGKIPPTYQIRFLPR

CYP2D6 = biological target: T3, CYP2D6 (Homo sapiens, UniProt P10635); test: Inhibition of CYP2D6 activity in human liver microsomes (dextrorphan/dextromethorphan ratio); assay type: biochemical
T3 construct: Human liver microsomes (UltraPool HLM 150) were purchased from BD Biosciences; tissue BD Biosciences UltraPool HLM 150; host or cells: pooled human liver microsomes
T3 sequence (P10635 whole entry): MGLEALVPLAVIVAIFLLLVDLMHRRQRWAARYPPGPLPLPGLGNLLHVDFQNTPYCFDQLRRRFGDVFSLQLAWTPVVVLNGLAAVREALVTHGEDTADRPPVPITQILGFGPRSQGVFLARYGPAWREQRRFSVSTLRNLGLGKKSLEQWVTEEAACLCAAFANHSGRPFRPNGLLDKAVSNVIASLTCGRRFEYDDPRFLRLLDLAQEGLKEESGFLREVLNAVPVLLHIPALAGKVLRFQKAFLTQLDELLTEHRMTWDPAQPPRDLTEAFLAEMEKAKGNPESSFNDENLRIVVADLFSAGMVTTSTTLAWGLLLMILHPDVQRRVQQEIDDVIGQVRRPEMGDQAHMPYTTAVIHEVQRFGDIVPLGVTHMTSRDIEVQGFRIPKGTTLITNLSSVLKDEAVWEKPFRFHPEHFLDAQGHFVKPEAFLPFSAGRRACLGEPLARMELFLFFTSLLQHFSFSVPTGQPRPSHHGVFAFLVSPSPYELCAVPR

[1] = Pharmacokinetic interaction between gemfibrozil and LipoCol Forte; assay type: in vivo, human
Experimental: The volunteers were fasted overnight before dosing and a high fat breakfast or dinner was served 0.5 h after administration of gemfibrozil. […] Blood samples were prepared as described in the previous section (dose-escalation study).

[2] = Single dose escalation and multiple dosing pharmacokinetic study of LipoCol Forte; settings: for CL/F / AUC(0-t) / AUC(0-inf) / Cmax / MRT / half-life / Tmax / Vd/F: fed, mean ± SD, n = 14; for AUC(0-t) / AUC(0-inf) / Cmax / MRT / half-life / Tmax / Vd/F: human, plasma, oral; for AUC(0-t): AUC0–12, healthy subjects; for AUC(0-inf): AUC0–inf; for half-life: T1/2, healthy subjects
Experimental: A high fat breakfast (including two eggs fried in butter, two strips of bacon, two slices of toast with butter, four ounces of hash brown potatoes, and eight ounces of whole milk) was provided 30 min before dosing. All doses were administered with 240 mL of water. […] A high fat breakfast or dinner was served 30 min before dosing. One capsule was administered with 240 mL of water. […] Within 30 min of collection, the samples were centrifuged at 2,600 g for 10 minutes at 4°C and the plasma transferred to labeled polypropylene tubes containing 50 μL of 17% phosphoric acid and stored at −80°C until analysis.
The pharmacokinetics were characterized, when appropriate, by the peak concentration in the plasma (C max⁡), time to reach the peak concentration (T max⁡), area under the plasma concentration versus time curve from time zero to the time of the last quantifiable concentration (AUC0−t), AUC from time zero to the time extrapolated to infinity (AUC0−inf⁡), half-life (T 1/2), mean residence time (MRT), apparent clearance (CL/F), and apparent volume of distribution (V d/F).

[3] = healthy subjects, single dose one LipoCol Forte capsule with coadministration of 600 mg gemfibrozil twice daily, mean ± SD, n = 13
[4] = human, plasma, oral, 1 LipoCol Forte capsule
[5] = 1 LipoCol Forte capsule, multiple doses one LipoCol Forte capsule BID for 5 days
[6] = 1 LipoCol Forte capsule, single dose one LipoCol Forte capsule
[7] = 1 LipoCol Forte capsule, healthy subjects, multiple doses one LipoCol Forte capsule BID for 5 days
[8] = 1 LipoCol Forte capsule, healthy subjects, single dose one LipoCol Forte capsule
[9] = 2 LipoCol Forte capsules, single dose two LipoCol Forte capsules
[10] = 2 LipoCol Forte capsules, healthy subjects, single dose two LipoCol Forte capsules
[11] = 4 LipoCol Forte capsules, single dose four LipoCol Forte capsules
[12] = 4 LipoCol Forte capsules, healthy subjects, single dose four LipoCol Forte capsules

CC[C@H](C)C(=O)O[C@H]1C[C@@H](C)C=C2C=C[C@H](C)[C@H](CC[C@@H]3C[C@@H](O)CC(=O)O3)[C@H]21 [Pure lovastatin, lovastatin, reference compound]
IC50 (CYP1A2): > 100 µM
IC50 (CYP2B6): 15 ± 1.11 µM
IC50 at 20 min (CYP2B6; human, human liver microsomes, probe bupropion): 9 to 16 µM
IC50 (CYP2D6): > 50 µM
Effect of concomitant gemfibrozil on pharmacokinetic parameters (AUC, Cmax) ([1]; healthy subjects, one LipoCol Forte capsule, gemfibrozil 600 mg twice daily): no significant effects
CL/F ([1]; healthy subjects, single dose one LipoCol Forte capsule alone, mean ± SD, n = 13): 1374.0 ± 782.6 L/h
CL/F [1, 3]: 1372.5 ± 763.8 L/h
Tmax [1, 3]: 3.00 ± 1.37 h
AUC(0-inf) [1, 4]: 5.68 ± 3.48 ng·h/mL
Cmax [1, 4]: 1.53 ± 1.45 ng/mL
MRT [1, 4]: 4.87 ± 1.28 h
Vd/F [1, 4]: 4000 ± 2600 L
half-life [1, 4]: 2.12 ± 0.7 h
AUC(0-t) ([1]; human, plasma, oral, 1 LipoCol Forte capsule, read-out: AUC0–12): 5 ± 3.29 ng·h/mL
Tmax ([1]; human, plasma, oral, 1 LipoCol Forte capsule, read-out: Tmax): 3.08 ± 1.17 h
CL/F ([2]; healthy subjects, multiple doses one LipoCol Forte capsule BID for 5 days): 1339.5 ± 763.3 L/h
CL/F ([2]; healthy subjects, single dose four LipoCol Forte capsules): 1128.8 ± 624.4 L/h
CL/F ([2]; healthy subjects, single dose one LipoCol Forte capsule): 941.7 ± 453.5 L/h
CL/F ([2]; healthy subjects, single dose two LipoCol Forte capsules): 994.5 ± 548.8 L/h
Accumulation with multiple dosing ([2]; healthy subjects, one LipoCol Forte capsule twice daily for 5 days): no accumulation
Dose linearity of pharmacokinetic properties (AUC, Cmax) ([2]; healthy subjects, single dose of 1, 2 or 4 LipoCol Forte capsules): linear
AUC(0-t) [2, 5]: 5.22 ± 2.6 ng·h/mL
AUC(0-t) [2, 6]: 6.74 ± 3.27 ng·h/mL
AUC(0-inf) [2, 7]: 5.71 ± 2.68 ng·h/mL
AUC(0-inf) [2, 8]: 7.47 ± 3.44 ng·h/mL
Cmax [2, 7]: 1.41 ± 0.69 ng/mL
Cmax [2, 8]: 1.61 ± 0.8 ng/mL
MRT [2, 7]: 4.81 ± 1.24 h
MRT [2, 8]: 5.55 ± 1.98 h
half-life [2, 5]: 1.93 ± 0.43 h
half-life [2, 6]: 2.36 ± 0.66 h
Tmax [2, 7]: 3.39 ± 1.38 h
Tmax [2, 8]: 3.46 ± 1.28 h
Vd/F [2, 7]: 3570 ± 1800 L
Vd/F [2, 8]: 3080 ± 1330 L
AUC(0-t) [2, 9]: 13.4 ± 6.07 ng·h/mL
AUC(0-inf) [2, 10]: 14.4 ± 6.3 ng·h/mL
Cmax [2, 10]: 3.36 ± 1.81 ng/mL
MRT [2, 10]: 5.27 ± 1.42 h
half-life [2, 9]: 2.36 ± 0.68 h
Tmax [2, 10]: 3.29 ± 1.35 h
Vd/F [2, 10]: 3380 ± 2050 L
AUC(0-t) [2, 11]: 24.9 ± 14.2 ng·h/mL
AUC(0-inf) [2, 12]: 26.8 ± 15.4 ng·h/mL
Cmax [2, 12]: 5.7 ± 3.42 ng/mL
MRT [2, 12]: 5.51 ± 1.11 h
half-life [2, 11]: 2.42 ± 0.45 h
Tmax [2, 12]: 3.25 ± 0.78 h
Vd/F [2, 12]: 3860 ± 1960 L
